“Also recorded” adds a separate entry of the source. Each block holds one sequence with its values, some of them ahead of it.
System: T2R complex
Assay: STD NMR titration, tau peptide binding to T2R
Set-up: species or system porcine (tubulin isolated from porcine brain)
Conditions: T2R 10 μM; for STD signal / binding to T2R: 1H STD NMR, peptide 2.8 mM, 600 MHz, saturation time 2 s, GPEM buffer pH 6.9; for STD signal / binding to T2R / apparent Kd / affinity for T2R (in words): 10 °C; for apparent Kd / affinity for T2R (in words): STD amplification factor fit, large errors, qualitative
Protocol: Tubulin protein isolated from porcine brain (97 or >99% pure) was purchased from Cytoskeleton, Inc, as a lyophilized powder. Stathmin-like RB3 domain (RB3SLD) binds to heterodimeric tubulin with a 1:2 stoichiometry, forming a longitudinal dimer of tubulin dimers. For ^1H,^15N HSQC NMR experiments, lyophilized tubulin was dissolved into a solution of 48 μM ^15N-labeled K18 (unmodified, modified, or mutant) containing 53 μM RB3 for a final T2R concentration of 50 μM in a buffer containing 25 mM Tris-d11, 25 mM NaCl, 2.5 mM EDTA, 1.5 mM DTT, and 10% heavy water (deuterium oxide [D2O]) at pH 6.7. For ^1H STD NMR experiments, 10 μM T2R was used for samples containing 0.044 to 2.8 mM peptide. Peptide was directly dissolved into buffer or water and added to 10 μM T2R in a buffer containing 25 mM Tris-d11, 25 mM NaCl, 2.5 mM EDTA, 1.5 mM DTT, and 10% D2O at pH 6.7.
STD spectra were recorded at 10 °C on a 600 MHz spectrometer equipped with a cryoprobe by using a series of 40 equally spaced 50 ms Gaussian-shaped pulses, 4096 scans, a saturation time of 2 s, and on/off-resonance frequencies set to −0.5 and 60 ppm, respectively. Samples for ^1H STD NMR were dissolved into GPEM buffer (80 mM PIPES, 2 mM MgCl2, and 0.5 mM EGTA, at pH 6.9). Spectra were processed and analyzed using Topspin 3.1 (Bruker). We quantify the binding of tau peptides to T2R with a series of STD titration experiments ([95]). STD NMR spectra of the ligand with and without T2R were recorded. The concentration of ligand (tau peptide) ranged from 0.04 to 2.8 mM; T2R concentration was maintained at 10 μM. From STD NMR spectra, STD signals were integrated and summed for both STDdiff and STDref over three regions, 8.565 to 7.771, 7.584 to 7.384, and 7.073 to 6.681 ppm. From STDdiff and STDref, STD AFs (STDAF) were calculated according to Equation 1, where [L] is the concentration of peptide (0.04–2.8 mM) and [R] is the concentration of T2R (10 μM). […] STD-AF values (at a fixed saturation time) of a peptide were fitted according to Equation 2, where αSTD represents the maximum STD AF ([72]). For peptide concentration of […] and T2R concentration of 10 μM, we generated STD build-up curves by recording the STD difference signal at increasing saturation times of 0.1 to 4 s. […] (2) STDAF([L])=αSTD∗[L]/Kd+[L] (3) STDAF(t)=STDmax(1−e^(−Ksat∗t)) STD0=STDmax∗Ksat

STD signal / binding to T2R (listed as acetylation at K280): further weakened | STD signal / binding to T2R (listed as acetylation at residue K280): Decreases in binding
Sequence: NLKHQPGGGKVQIIN {acetyl-K} KLDLSNVQSK [Acetyl-K280 265 to 290, K280 acetylated form of the 265 to 290 peptide]
apparent Kd / affinity for T2R (in words) (peptide 0.044 to 2.8 mM, listed as K280 acetylation): trend toward reduced binding, though to a lesser extent

apparent Kd / affinity for T2R (in words) (peptide 0.044 to 2.8 mM, listed as Y310 phosphorylated peptide): severely reduced peptide binding to T2R | apparent Kd / affinity for T2R (in words) (peptide 0.044 to 2.8 mM, listed as Y310 phosphorylated peptides): precluded a reliable fit
Sequence: NIKHVPGGGSVQIV {phospho-Y} KPVDLSKVTSK [Phos-Y310 296 to 321, Y310 phosphorylated form of the 296 to 321 peptide]
STD signal / binding to T2R (listed as phosphorylation at residue Y310): weaker STD signal; also recorded: Decreases in binding | apparent Kd / affinity for T2R (in words) (peptide 0.044 to 2.8 mM, listed as phosphorylation at Y310): linear binding curve over the accessible range of peptide concentrations, precluding a robust fit to the data, but indicating a more severe reduction in affinity

apparent Kd / affinity for T2R (in words) (peptide 0.044 to 2.8 mM, listed as Succinylation at K311): trend toward lower apparent affinity | apparent Kd increase vs 296 to 321 peptide (STD-AF, peptide 0.044 to 2.8 mM, trend): ca. twofold
Sequence: NIKHVPGGGSVQIVY {succinyl-K} PVDLSKVTSK [Succinyl-K311 296 to 321, K311 succinylated form of the 296 to 321 peptide]
STD signal / binding to T2R (listed as succinylation at residue K311): loss of binding is evident; also recorded: Decreases in binding | apparent Kd / affinity for T2R (in words) (peptide 0.044 to 2.8 mM, listed as Succinylation of K311): trend toward reduced binding, though to a lesser extent

From PMC8741514, “Post-translational modifications within tau paired helical filament nucleating motifs perturb microtubule interactions and oligomer formation” (The Journal of Biological Chemistry, 2021)
